In patent US9206156B2, “Substituted indole derivatives” (GRÜNENTHAL GMBH, priority 2008, dated 2015):

Tests used:
ORL1 receptor = biological target: T1, ORL1 receptor (Homo sapiens, UniProt P41146); assay: ORL1 receptor binding assay with 3H-nociceptin/orphanin FQ (WGA-SPA beads); details: c=1 μM test substance; 0.5 nM 3H-nociceptin/orphanin FQ; membranes of recombinant CHO-ORL1 cells
T1 construct: expressed in transfected cells; host or cells: CHO (recombinant CHO-ORL1 cells), membranes
Description: Measurement of ORL1 Binding
The cyclohexane derivatives having the general formula I were investigated in a receptor binding assay with ^3H-nociceptin/orphanin FQ with membranes of recombinant CHO—ORL1 cells. This test system was conducted in accordance with the method described by Ardati et al. (Mol. Pharmacol., 51, 1997, p. 816-824). The concentration of ^3H-nociceptin/orphanin FQ in these tests was 0.5 nM. The binding assays were carried out with 20 μg amounts of membrane protein per 200 μl batch in 50 mM Hepes, pH 7.4, 10 mM MgCl2 and 1 mM EDTA. The binding to the ORL1 receptor was determined using 1 mg amounts of WGA-SPA beads (Amersham-Pharmacia, Freiburg, Germany), by incubation of the batch for one hour at room temperature and subsequent measurement in a Trilux scintillation counter (Wallac, Finland). The affinity is given in Table 1 as the nanomolar Ki value or in % inhibition at c=1 μM.

human μ-opiate receptor = biological target: T2, human μ-opiate receptor (Homo sapiens, UniProt P35372); assay: μ-opiate receptor binding assay with [3H] naloxone (WGA-SPA beads); details: 1 μmol/l test substance, 1 nmol/l [3H] naloxone, CHO-K1 cell membranes expressing human μ-opiate receptor
T2 construct: purchased NEN, Zaventem, Belgium RB-HOM; host or cells: CHO-K1 cells (membrane preparation)
Description: The receptor affinity to the human μ-opiate receptor was determined in a homogeneous batch in microtitre plates. To this end, dilution series of the substituted indole derivative to be tested were incubated for 90 minutes at room temperature with a receptor membrane preparation (15-40 μg protein per 250 μl incubation batch) of CHO-K1 cells, which express the human μ-opiate receptor (RB—HOM receptor membrane preparation from NEN, Zaventem, Belgium), in the presence of 1 nmol/l of the radioactive ligand [^3H] naloxone (NET719, NEN, Zaventem, Belgium) and 1 mg of WGA-SPA beads (wheat germ agglutinin SPA beads from Amersham/Pharmacia, Freiburg, Germany) in a total volume of 250 μl. 50 mmol/l tris-HCl supplemented with 0.05 wt. % sodium azide and 0.06 wt. % bovine serum albumin were used as the incubation buffer. In order to determine the non-specific binding, 25 μmol/l of naloxone were also added. At the end of the ninety-minute incubation period the microtitre plates were centrifuged for 20 minutes at 1000 g and the radioactivity was measured in a β counter (Microbeta-Trilux, PerkinElmer Wallac, Freiburg, Germany). The percentage displacement of the radioactive ligand from its binding to the human μ-opiate receptor was determined at a test substance concentration of 1 μmol/l and stated as the percentage inhibition (% inhibition) of the specific binding. In some cases the percentage displacement due to differing concentrations of the compounds having the general formula I to be tested was used to calculate the IC50 inhibition concentrations which bring about a 50-percent displacement of the radioactive ligand. Ki values for the test substances were obtained by extrapolation using the Cheng-Prusoff equation.

T1 sequence (P41146 whole entry): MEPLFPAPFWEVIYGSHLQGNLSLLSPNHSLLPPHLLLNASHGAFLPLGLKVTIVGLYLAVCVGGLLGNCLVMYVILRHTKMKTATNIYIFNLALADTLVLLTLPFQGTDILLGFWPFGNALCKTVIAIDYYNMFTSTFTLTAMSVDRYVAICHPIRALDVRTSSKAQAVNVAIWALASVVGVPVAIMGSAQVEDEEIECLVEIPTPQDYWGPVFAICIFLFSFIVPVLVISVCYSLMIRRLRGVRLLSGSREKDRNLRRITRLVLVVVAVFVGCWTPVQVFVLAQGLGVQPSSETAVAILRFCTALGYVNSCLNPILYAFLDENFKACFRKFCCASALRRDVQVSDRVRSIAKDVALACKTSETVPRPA
T2 sequence (P35372 whole entry): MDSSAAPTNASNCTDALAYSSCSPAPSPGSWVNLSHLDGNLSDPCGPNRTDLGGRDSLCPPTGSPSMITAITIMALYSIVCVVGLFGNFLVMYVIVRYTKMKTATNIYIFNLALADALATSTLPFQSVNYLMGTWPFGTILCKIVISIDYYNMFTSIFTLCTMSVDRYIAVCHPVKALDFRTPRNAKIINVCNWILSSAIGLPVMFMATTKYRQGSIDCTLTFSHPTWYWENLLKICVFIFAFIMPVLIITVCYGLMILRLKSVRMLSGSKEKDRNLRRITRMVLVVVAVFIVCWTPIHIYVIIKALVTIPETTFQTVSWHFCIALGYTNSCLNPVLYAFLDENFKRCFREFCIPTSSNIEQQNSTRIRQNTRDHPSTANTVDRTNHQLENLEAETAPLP

Compound	inhibition at 1 µM (ORL1 receptor)	inhibition at 1 µM (human μ-opiate receptor)	% Inhibition (ORL1) at 1 μM (ORL1 receptor)	% Inhibition (μ) at 1 μM (human μ-opiate receptor)	% Inhibition (μ) at 1 μM (human μ-opiate receptor; 1 µM)
CN(CCN1CCC(c2ccccc2)(N2CCCC2)CC1)C(=O)C1CCCc2c1[nH]c1ccc(Cl)cc21 (centres unmarked) [Example 42, 6-Chloro-N-methyl-N-(2-(4-phenyl-4-(pyrrolidin-1-yl)piperidin-1-yl)ethyl)-2,3,4,9-tetrahydro-1H-carbazole-1-carboxamide]	22%	28%			
CC(CC(=O)N(C)CCCN1CCC(c2ccccc2)(N(C)C)CC1)c1c[nH]c2ccccc12 (centres unmarked) [Example 59, N-(3-(4-(Dimethylamino)-4-phenylpiperidin-1-yl)propyl)-3-(1H-indol-3-yl)-N-methylbutanamide]	60%	86%			
CC(C)c1ccc2c(CN(C)CCN3CCC(c4ccccc4)(N(C)C)CC3)c[nH]c2c1 [Example 73, 1-(2-(((6-Isopropyl-1H-indol-3-yl)methyl)(methyl)amino)ethyl)-N,N-dimethyl-4-phenylpiperidin-4-amine]			95%	95%	
CN(C)C1(c2ccccc2)CCN(C(=O)C2CCCN(C(=O)C3CCCc4c3[nH]c3ccc(Cl)cc43)C2)CC1 (centres unmarked) [Example 103, (6-chloro-2,3,4,9-tetrahydro-1H-carbazol-1-yl)(3-(4-(dimethylamino)-4-phenylpiperidine-1-carbonyl)piperidin-1-yl)methanone]	65%	35%			
CC(C)C(CC(=O)NCCN1CCC(c2cccs2)(N(C)C)CC1)c1c[nH]c2ccccc12 (centres unmarked) [Example 6, N-(2-(4-(Dimethylamino)-4-(thiophen-2-yl)piperidin-1-yl)ethyl)-3-(1H-indol-3-yl)-4-methylpentanamide]			98%		102%
CN(CCCN1CCC(c2cccs2)(N(C)C)CC1)C(=O)c1ccc2cc[nH]c2c1 [Example 17, N-(3-(4-(Dimethylamino)-4-(thiophen-2-yl)piperidin-1-yl)propyl)-N-methyl-1H-indole-6-carboxamide]	38%	70%			
CN(C(=O)CCc1c[nH]c2ccccc12)C(C(=O)N1CCC(c2cccs2)(N(C)C)CC1)c1ccccc1 (centres unmarked) [Example 110, N-(2-(4-(dimethylamino)-4-(thiophen-2-yl)piperidin-1-yl)-2-oxo-1-phenylethyl)-3-(1H-indol-3-yl)-N-methylpropanamide]	60%	92%			
CN(C)C1(c2cccs2)CCN(C(=O)CC(NCc2cccc3[nH]ccc23)c2ccccc2)CC1 (centres unmarked) [Example 174, 3-((1H-indol-4-yl)methylamino)-1-(4-(dimethylamino)-4-(thiophen-2-yl)piperidin-1-yl)-3-phenylpropan-1-one]	68%	92%			
CN(C)C1(c2ccccc2)CCN(C(=O)C2CCCN(C(=O)c3cc4cc(F)ccc4[nH]3)C2)CC1 (centres unmarked) [Example 104, (4-(dimethylamino)-4-phenylpiperidin-1-yl)(1-(5-fluoro-1H-indole-2-carbonyl)piperidin-3-yl)methanone]	64%	89%			
CN(CCN1CCC(c2ccccc2)(N2CCCC2)CC1)C(=O)c1ccc2ccn(C)c2c1 [Example 37, N,1-Dimethyl-N-(2-(4-phenyl-4-(pyrrolidin-1-yl)piperidin-1-yl)ethyl)-1H-indole-6-carboxamide]	16%	47%			
CCCCC1(N(C)C)CCN(CCN(C)C(=O)CC(C)c2c[nH]c3ccccc23)CC1 (centres unmarked) [Example 58, N-(2-(4-Butyl-4-(dimethylamino)piperidin-1-yl)ethyl)-3-(1H-indol-3-yl)-N-methylbutanamide]	20%	77%			
CN(CCN1CCC(c2ccccc2)(N(C)C)CC1)C(=O)c1cccc2c1ccn2C [Example 31, N-(2-(4-(Dimethylamino)-4-phenylpiperidin-1-yl)ethyl)-N,1-dimethyl-1H-indole-4-carboxamide]	35%	88%			
CN(CCN1CCC(c2ccccc2)(N(C)C)CC1)C(=O)Cc1c[nH]c2cc(F)ccc12 [Example 27, N-(2-(4-(Dimethylamino)-4-phenylpiperidin-1-yl)ethyl)-2-(6-fluoro-1H-indol-3-yl)-N-methylacetamide]	93%	98%			
CN(C)C1(c2ccccc2)CCN(C(=O)CCNC(=O)CCc2c[nH]c3ccccc23)CC1 [Example 98, N-(3-(4-(dimethylamino)-4-phenylpiperidin-1-yl)-3-oxopropyl)-3-(1H-indol-3-yl)propanamide]	73%	85%			
CN(CCN1CCC(c2ccccc2)(N(C)C)CC1)Cc1c(-c2ccc(F)cc2)[nH]c2ccccc12 [Example 70, 1-(2-(((2-(4-Fluorophenyl)-1H-indol-3-yl)methyl)(methyl)amino)ethyl)-N,N-dimethyl-4-phenylpiperidin-4-amine]	80%	98%			
CCCCC1(N(C)C)CCN(CCN(C)C(=O)CCc2cn(C)c3ccccc23)CC1 [Example 49, N-(2-(4-Butyl-4-(dimethylamino)piperidin-1-yl)ethyl)-N-methyl-3-(1-methyl-1H-indol-3-yl)propanamide]	17%	52%			
CN(C)C1(c2ccccc2)CCN(C(=O)C2CCCN(C(=O)Cc3c[nH]c4cc(F)ccc34)C2)CC1 (centres unmarked) [Example 124, 1-(3-(4-(dimethylamino)-4-phenylpiperidine-1-carbonyl)piperidin-1-yl)-2-(6-fluoro-1H-indol-3-yl)ethanone]	43%	64%			
CN(CCN1CCC(c2ccccc2)(N2CCCC2)CC1)C(=O)Cc1c[nH]c2ccc(Br)cc12 [Example 62, 2-(5-Bromo-1H-indol-3-yl)-N-methyl-N-(2-(4-phenyl-4-(pyrrolidin-1-yl)piperidin-1-yl)ethyl)acetamide]	14%	57%			
CC(CC(=O)N1CCCC(C(=O)N2CCC(c3ccccc3)(N(C)C)CC2)C1)c1c[nH]c2ccccc12 (centres unmarked) [Example 122, 1-(3-(4-(dimethylamino)-4-phenylpiperidine-1-carbonyl)piperidin-1-yl)-3-(1H-indol-3-yl)butan-1-one]	43%	84%			
CN(CCN1CCC(c2ccccc2)(N(C)C)CC1)C(=O)C1CCCc2c1[nH]c1ccc(Cl)cc21 (centres unmarked) [Example 127, 6-chloro-N-(2-(4-(dimethylamino)-4-phenylpiperidin-1-yl)ethyl)-N-methyl-2,3,4,9-tetrahydro-1H-carbazole-1-carboxamide]		68%	39%		
CN(CCN1CCC(c2ccccc2)(N(C)C)CC1)Cc1c[nH]c2ccccc12 [Example 187, 1-(2-(((1H-indol-3-yl)methyl)(methy)amino)ethyl)-N,N-dimethyl-4-phenylpiperidin-4-amine]			87%		100%
CN(C)C1(c2ccccc2)CCN(C(=O)C2CCCN(Cc3c[nH]c4ccc(Br)cc34)C2)CC1 (centres unmarked) [Example 155, (1-((5-bromo-1H-indol-3-yl)methyl)piperidin-3-yl)(4-(dimethylamino)-4-phenylpiperidin-1-yl) methanone]	69%	89%			
CN(C)C1(c2cccs2)CCN(CCNCc2c[nH]c3ccc(Cl)cc23)CC1 [Example 178, 1-(2-((5-chloro-1H-indol-3-yl)methylamino)ethyl)-N,N-dimethyl-4-(thiophen-2-yl)piperidin-4-amine]	99%	100%			
CN(C)C1(c2ccccc2)CCN(C(=O)C2CCCN(C(=O)c3ccc4cc[nH]c4c3)C2)CC1 (centres unmarked) [Example 125, (1-(1H-indole-6-carbonyl)piperidin-3-yl)(4-(dimethylamino)-4-phenylpiperidin-1-yl)methanone]	42%	55%			
COc1ccc2[nH]cc(CN(C)CCN3CCC(c4ccccc4)(N(C)C)CC3)c2c1 [Example 75, 1-(2-(((5-Methoxy-1H-indol-3-yl)methyl)(methyl)amino)ethyl)-N,N-dimethyl-4-phenylpiperidin-4-amine]			79%		97%
